This passage reports Ki results from patent US10584128B2, “Bicyclic dihydropyrimidine-carboxamide derivatives as Rho-Kinase inhibitors” (CHIESI FARMACEUTICI S.p.A., priority 2016, dated 2020).

Test [1] concerns the target Rho kinase 1 (Homo sapiens, UniProt Q13464). Briefly: In vitro Rho kinase inhibitory activity assay (ADP-Glo kit, Myelin Basic Protein substrate). As to conditions: 10 μM ATP, 25° C., read-out: ROCK1 inhibitory activity (Ki, range of activity). The format is biochemical. Put shortly:
(§1)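 Each kinase (ROCK1 or ROCK2) sat with compound for 30 min at 25 °C before 10 μM ATP started a 1 h reaction on 2.5 μM myelin basic protein (Tris pH 7.5, MgCl2, BSA, DTT, 1% DMSO). ADP formed was read by ADP-Glo luminescence. Dose-response IC50s were converted to Ki by Cheng-Prusoff.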

The target in test [2] is Rho kinase 2 (Homo sapiens, UniProt O75116). The description is as above. Format: biochemical. As to conditions: 10 μM ATP, 25° C., read-out: ROCK2 inhibitory activity (Ki, range of activity). In short, it runs like this: as §1
Sequence of Rho kinase 2 (O75116 whole entry): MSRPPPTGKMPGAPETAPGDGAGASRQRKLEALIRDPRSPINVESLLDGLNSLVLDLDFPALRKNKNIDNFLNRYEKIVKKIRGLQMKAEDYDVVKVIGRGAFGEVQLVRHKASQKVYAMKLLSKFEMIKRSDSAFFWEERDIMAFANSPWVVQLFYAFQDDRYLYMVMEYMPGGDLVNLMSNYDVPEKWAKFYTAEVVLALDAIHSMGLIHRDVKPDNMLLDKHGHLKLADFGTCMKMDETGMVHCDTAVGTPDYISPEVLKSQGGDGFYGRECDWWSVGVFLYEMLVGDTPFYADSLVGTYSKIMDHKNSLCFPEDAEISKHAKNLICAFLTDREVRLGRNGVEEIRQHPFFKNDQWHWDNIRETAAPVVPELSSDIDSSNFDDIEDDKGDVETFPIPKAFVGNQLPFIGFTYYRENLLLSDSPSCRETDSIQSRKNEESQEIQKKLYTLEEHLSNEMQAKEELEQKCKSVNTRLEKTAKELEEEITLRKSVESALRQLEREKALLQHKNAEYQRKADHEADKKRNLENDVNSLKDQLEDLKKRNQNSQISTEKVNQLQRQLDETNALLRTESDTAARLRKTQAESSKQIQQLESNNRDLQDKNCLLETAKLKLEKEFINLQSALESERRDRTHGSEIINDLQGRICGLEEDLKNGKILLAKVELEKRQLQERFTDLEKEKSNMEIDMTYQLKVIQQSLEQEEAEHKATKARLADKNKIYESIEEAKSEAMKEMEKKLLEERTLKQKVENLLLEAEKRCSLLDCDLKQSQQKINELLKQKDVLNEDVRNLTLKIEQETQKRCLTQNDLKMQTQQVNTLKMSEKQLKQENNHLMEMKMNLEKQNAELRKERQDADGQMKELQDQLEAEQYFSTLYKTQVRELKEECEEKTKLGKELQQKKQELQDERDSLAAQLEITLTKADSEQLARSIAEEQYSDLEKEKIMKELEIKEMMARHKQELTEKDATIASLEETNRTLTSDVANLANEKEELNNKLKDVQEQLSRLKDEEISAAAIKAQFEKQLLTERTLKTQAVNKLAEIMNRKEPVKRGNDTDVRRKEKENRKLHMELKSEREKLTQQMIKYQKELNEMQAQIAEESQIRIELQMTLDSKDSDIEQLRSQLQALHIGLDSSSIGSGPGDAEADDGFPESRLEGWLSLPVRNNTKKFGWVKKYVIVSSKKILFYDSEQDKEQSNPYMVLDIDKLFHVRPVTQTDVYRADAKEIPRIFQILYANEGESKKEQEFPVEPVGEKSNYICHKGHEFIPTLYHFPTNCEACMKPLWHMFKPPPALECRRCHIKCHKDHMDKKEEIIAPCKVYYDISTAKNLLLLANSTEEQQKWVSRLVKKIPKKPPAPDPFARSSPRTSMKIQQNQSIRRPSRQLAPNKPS

Sequence of Rho kinase 1 (Q13464 whole entry): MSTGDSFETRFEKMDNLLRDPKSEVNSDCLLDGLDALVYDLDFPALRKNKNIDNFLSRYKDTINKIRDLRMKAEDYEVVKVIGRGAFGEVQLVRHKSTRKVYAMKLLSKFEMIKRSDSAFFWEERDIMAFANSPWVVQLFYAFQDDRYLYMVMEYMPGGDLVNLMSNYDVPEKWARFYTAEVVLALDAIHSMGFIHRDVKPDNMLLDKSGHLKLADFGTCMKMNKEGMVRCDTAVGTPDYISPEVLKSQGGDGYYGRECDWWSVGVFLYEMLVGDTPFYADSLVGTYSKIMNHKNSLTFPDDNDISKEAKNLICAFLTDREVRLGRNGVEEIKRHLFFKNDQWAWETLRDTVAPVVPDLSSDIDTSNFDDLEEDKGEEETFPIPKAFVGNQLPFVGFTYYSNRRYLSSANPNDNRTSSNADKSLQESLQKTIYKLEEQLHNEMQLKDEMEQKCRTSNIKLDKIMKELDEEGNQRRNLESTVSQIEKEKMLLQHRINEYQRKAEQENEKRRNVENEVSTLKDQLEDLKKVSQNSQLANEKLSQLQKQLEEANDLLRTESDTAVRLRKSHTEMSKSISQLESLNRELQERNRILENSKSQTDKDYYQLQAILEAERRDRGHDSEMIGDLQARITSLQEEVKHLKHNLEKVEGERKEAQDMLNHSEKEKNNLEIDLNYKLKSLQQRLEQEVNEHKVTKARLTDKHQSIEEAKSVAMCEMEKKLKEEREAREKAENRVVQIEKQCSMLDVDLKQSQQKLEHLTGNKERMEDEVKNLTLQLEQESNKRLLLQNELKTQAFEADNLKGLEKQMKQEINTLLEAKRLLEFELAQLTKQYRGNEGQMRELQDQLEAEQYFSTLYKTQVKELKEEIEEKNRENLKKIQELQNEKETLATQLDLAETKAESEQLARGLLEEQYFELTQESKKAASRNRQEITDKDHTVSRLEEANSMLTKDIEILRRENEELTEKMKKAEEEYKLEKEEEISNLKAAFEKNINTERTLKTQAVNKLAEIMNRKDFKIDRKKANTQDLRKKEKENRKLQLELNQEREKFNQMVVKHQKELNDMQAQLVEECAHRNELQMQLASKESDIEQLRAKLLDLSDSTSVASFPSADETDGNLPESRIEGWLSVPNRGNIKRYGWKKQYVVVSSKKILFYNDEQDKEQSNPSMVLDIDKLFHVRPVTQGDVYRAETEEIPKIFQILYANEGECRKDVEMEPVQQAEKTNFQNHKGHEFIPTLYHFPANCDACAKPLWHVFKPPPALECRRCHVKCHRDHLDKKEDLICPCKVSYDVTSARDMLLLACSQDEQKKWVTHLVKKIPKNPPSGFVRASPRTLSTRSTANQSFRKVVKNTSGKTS

On to `CC1=C(C(=O)Nc2ccc3cnccc3c2)C(c2ccc(C(F)(F)F)c(F)c2)n2nc(NC(=O)c3ccc(CN(C)C)cc3)cc2N1` (single isomer, unassigned) [Example 137B, 2-(4-((Dimethylamino)methyl)benzamido)-7-(3-fluoro-4-(trifluoromethyl)-phenyl)-N-(isoquinolin-6-yl)-5-methyl-4,7-dihydropyrazolo[1,5-a]pyrimidine-6-carboxamide], for which the Ki in test [1] and in test [2] was under 50 nM each time.

For `CC1=C(C(=O)Nc2ccc3cnccc3c2)C(c2ccc(C(F)(F)F)c(F)c2)n2nc(CNC(=O)CCN3CCCCC3)cc2N1` (single isomer, unassigned) [Example 138A, 7-(3-Fluoro-4-(trifluoromethyl)phenyl)-N-(isoquinolin-6-yl)-5-methyl-2-((3-(piperidin-1-yl)propanamido)methyl)-4,7-dihydropyrazolo[1,5-a]pyrimidine-6-carboxamide], the Ki in test [1] and in test [2] was under 50 nM throughout.

In the case of `CC1=C(C(=O)Nc2ccc3cnccc3c2)C(c2ccc(C(F)(F)F)c(F)c2)n2nc(CNC(=O)CCN3CCCCC3)cc2N1` (single isomer, unassigned) [Example 138B, 7-(3-Fluoro-4-(trifluoromethyl)phenyl)-N-(isoquinolin-6-yl)-5-methyl-2-((3-(piperidin-1-yl)propanamido)methyl)-4,7-dihydropyrazolo[1,5-a]pyrimidine-6-carboxamide], the Ki in test [1] and in test [2] was over 500 nM throughout.

In the case of `CCOC(=O)c1cc2n(n1)C(c1ccc(C(F)(F)F)cc1)C(C(=O)Nc1ccc3cnccc3c1)=C(C)N2` (centres unmarked) [Example 1, ethyl 6-(isoquinolin-6-ylcarbamoyl)-5-methyl-7-(4-(trifluoromethyl)phenyl)-4,7-dihydropyrazolo[1,5-a]pyrimidine-2-carboxylate], the Ki in test [1] and in test [2] was under 50 nM throughout.

With `CCOC(=O)c1cc2n(n1)C(c1ccc(C(F)(F)F)cc1)C(C(=O)Nc1ccc3[nH]ncc3c1)=C(C)N2` (centres unmarked) [Example 2, ethyl 6-((1H-indazol-5-yl)carbamoyl)-5-methyl-7-(4-(trifluoromethyl)phenyl)-4,7-dihydropyrazolo[1,5-a]pyrimidine-2-carboxylate], the Ki in test [1] and in test [2] was under 50 nM throughout.

Consider `CCOC(=O)c1cc2n(n1)C(c1ccc(C)cc1)C(C(=O)Nc1ccc3[nH]ncc3c1)=C(C)N2` (centres unmarked) [Example 3, ethyl 6-((1H-indazol-5-yl)carbamoyl)-5-methyl-7-(p-tolyl)-4,7-dihydropyrazolo[1,5-a]pyrimidine-2-carboxylate], for which the Ki in test [1] and in test [2] was under 50 nM throughout.

`CCOC(=O)c1cc2n(n1)C(c1ccc(Cl)nc1)C(C(=O)Nc1ccc3[nH]ncc3c1)=C(C)N2` (centres unmarked) [Example 5, ethyl 6-((1H-indazol-5-yl)carbamoyl)-7-(6-chloropyridin-3-yl)-5-methyl-4,7-dihydropyrazolo[1,5-a]pyrimidine-2-carboxylate]: the Ki in test [1] and in test [2] was under 50 nM each time.

`CCOC(=O)c1cc2n(n1)C(c1cccc(OC)c1)C(C(=O)Nc1ccc3[nH]ncc3c1)=C(C)N2` (centres unmarked) [Example 6, ethyl 6-((1H-indazol-5-yl)carbamoyl)-7-(3-methoxyphenyl)-5-methyl-4,7-dihydropyrazolo[1,5-a]pyrimidine-2-carboxylate]: the Ki in test [1] and in test [2] was 50 to 500 nM throughout.

As for `CCOC(=O)c1cc2n(n1)C(c1nc3ccccc3s1)C(C(=O)Nc1ccc3cnccc3c1)=C(C)N2` (centres unmarked) [Example 8, ethyl 7-(benzo[d]thiazol-2-yl)-6-(isoquinolin-6-ylcarbamoyl)-5-methyl-4,7-dihydropyrazolo[1,5-a]pyrimidine-2-carboxylate], the Ki in test [1] and in test [2] was under 50 nM in each case.

Consider `CCOC(=O)c1cc2n(n1)C(c1ccc(O)cc1)C(C(=O)Nc1ccc3cnccc3c1)=C(C)N2` (centres unmarked) [Example 9, ethyl 7-(4-hydroxyphenyl)-6-(isoquinolin-6-ylcarbamoyl)-5-methyl-4,7-dihydropyrazolo[1,5-a]pyrimidine-2-carboxylate], for which the Ki in test [1] and in test [2] was under 50 nM in each case.

Regarding `CCOC(=O)c1cc2n(n1)C(c1ccc(O)c(F)c1)C(C(=O)Nc1ccc3cnccc3c1)=C(C)N2` (centres unmarked) [Example 10, ethyl 7-(3-fluoro-4-hydroxyphenyl)-6-(isoquinolin-6-ylcarbamoyl)-5-methyl-4,7-dihydropyrazolo[1,5-a]pyrimidine-2-carboxylate], the Ki in test [1] and in test [2] was under 50 nM each time.

For the molecule `CCOC(=O)c1cc2n(n1)C(C1CCOCC1)C(C(=O)Nc1ccc3[nH]ncc3c1)=C(C)N2` (centres unmarked) [Example 11, ethyl 6-((1H-indazol-5-yl)carbamoyl)-5-methyl-7-(tetrahydro-2H-pyran-4-yl)-4,7-dihydropyrazolo[1,5-a]pyrimidine-2-carboxylate], the Ki in test [1] and in test [2] was 50 to 500 nM each time.

Turning to `CCOC(=O)c1cc2n(n1)C(C1CCN(C)CC1)C(C(=O)Nc1ccc3[nH]ncc3c1)=C(C)N2` (centres unmarked) [Example 12, ethyl 6-((1H-indazol-5-yl)carbamoyl)-5-methyl-7-(1-methylpiperidin-4-yl)-4,7-dihydropyrazolo[1,5-a]pyrimidine-2-carboxylate], the Ki in test [1] and in test [2] was over 500 nM in each case.

Regarding `CCOC(=O)c1cc2n(n1)C(CC(C)C)C(C(=O)Nc1ccc3[nH]ncc3c1)=C(C)N2` (centres unmarked) [Example 13, ethyl 6-((1H-indazol-5-yl)carbamoyl)-7-isobutyl-5-methyl-4,7-dihydropyrazolo[1,5-a]pyrimidine-2-carboxylate], the Ki in test [1] and in test [2] was 50 to 500 nM throughout.

For the molecule `CCOC(=O)c1cc2n(n1)C(C1CCCCC1)C(C(=O)Nc1ccc3[nH]ncc3c1)=C(C)N2` (centres unmarked) [Example 14, ethyl 6-((1H-indazol-5-yl)carbamoyl)-7-cyclohexyl-5-methyl-4,7-dihydropyrazolo[1,5-a]pyrimidine-2-carboxylate], the Ki is 50 to 500 nM in test [1] and under 50 nM in test [2].

Consider `CCOC(=O)c1cc2n(n1)C(c1ccc(C(F)(F)F)c(F)c1)C(C(=O)Nc1ccn3cnnc3c1)=C(C)N2` (centres unmarked) [Example 15, ethyl 6-([1,2,4]triazolo[4,3-a]pyridin-7-ylcarbamoyl)-7-(3-fluoro-4-(trifluoromethyl)phenyl)-5-methyl-4,7-dihydropyrazolo[1,5-a]pyrimidine-2-carboxylate], for which the Ki in test [1] and in test [2] was over 500 nM throughout.

As to `CCOC(=O)c1nn2c(c1C#N)NC(C)=C(C(=O)Nc1ccc3[nH]ncc3c1)C2c1ccc(C(F)(F)F)cc1` (centres unmarked) [Example 16, ethyl 6-((1H-indazol-5-yl)carbamoyl)-3-cyano-5-methyl-7-(4-(trifluoromethyl)phenyl)-4,7-dihydropyrazolo[1,5-a]pyrimidine-2-carboxylate], the Ki in test [1] and in test [2] was under 50 nM throughout.

`CCOC(=O)c1cnn2c1NC(C)=C(C(=O)Nc1ccc3[nH]ncc3c1)C2c1ccc(F)cc1` (centres unmarked) [Example 17, ethyl 6-((1H-indazol-5-yl)carbamoyl)-7-(4-fluorophenyl)-5-methyl-4,7-dihydropyrazolo[1,5-a]pyrimidine-3-carboxylate]: the Ki in test [1] and in test [2] was over 500 nM throughout.

On to `CC1=C(C(=O)Nc2ccc3[nH]ncc3c2)C(c2ccc(F)cc2)n2ncc(C#N)c2N1` (centres unmarked) [Example 18, 3-cyano-7-(4-fluorophenyl)-N-(1H-indazol-5-yl)-5-methyl-4,7-dihydropyrazolo[1,5-a]pyrimidine-6-carboxamide], for which the Ki in test [1] and in test [2] was under 50 nM in each case.

As for `CC1=C(C(=O)Nc2ccc3[nH]ncc3c2)C(c2ccc(F)cc2)n2ncc(C(N)=O)c2N1` (centres unmarked) [Example 19, 7-(4-fluorophenyl)-N6-(1H-indazol-5-yl)-5-methyl-4,7-dihydropyrazolo[1,5-a]pyrimidine-3,6-dicarboxamide], the Ki in test [1] and in test [2] was 50 to 500 nM throughout.

With `COc1ccc(-c2cc3n(n2)C(c2ccc(F)cc2)C(C(=O)Nc2ccc4[nH]ncc4c2)=C(C)N3)cc1` (centres unmarked) [Example 20, 7-(4-fluorophenyl)-N-(1H-indazol-5-yl)-2-(4-methoxyphenyl)-5-methyl-4,7-dihydropyrazolo[1,5-a]pyrimidine-6-carboxamide], the Ki in test [1] and in test [2] was under 50 nM in each case.

For the molecule `COc1ccccc1-c1cc2n(n1)C(c1ccc(F)cc1)C(C(=O)Nc1ccc3[nH]ncc3c1)=C(C)N2` (centres unmarked) [Example 21, 7-(4-fluorophenyl)-N-(1H-indazol-5-yl)-2-(2-methoxyphenyl)-5-methyl-4,7-dihydropyrazolo[1,5-a]pyrimidine-6-carboxamide], the Ki in test [1] and in test [2] was 50 to 500 nM in each case.

Turning to `CC1=C(C(=O)Nc2ccc3[nH]ncc3c2)C(c2ccc(F)cc2)n2ncc(Br)c2N1` (centres unmarked) [Example 22, 3-bromo-7-(4-fluorophenyl)-N-(1H-indazol-5-yl)-5-methyl-4,7-dihydropyrazolo[1,5-a]pyrimidine-6-carboxamide], the Ki in test [1] and in test [2] was under 50 nM in each case.

With `CC1=C(C(=O)Nc2ccc3[nH]ncc3c2)C(c2ccc(F)cc2)n2nc(C)cc2N1` (centres unmarked) [Example 28, 7-(4-fluorophenyl)-N-(1H-indazol-5-yl)-2,5-dimethyl-4,7-dihydropyrazolo[1,5-a]pyrimidine-6-carboxamide], the Ki in test [1] and in test [2] was under 50 nM each time.

For the molecule `CC1=C(C(=O)Nc2ccc3[nH]ncc3c2)C(c2ccc(F)cc2)n2nc(C(C)(C)C)cc2N1` (centres unmarked) [Example 29, 2-(tert-butyl)-7-(4-fluorophenyl)-N-(1H-indazol-5-yl)-5-methyl-4,7-dihydropyrazolo[1,5-a]pyrimidine-6-carboxamide], the Ki in test [1] and in test [2] was under 50 nM in each case.
